From patent US8110543B2, “Anti-invasive and anti-angiogenic compositions” (Angstrom Pharmaceuticals, Inc., priority 1997, dated 2012) come the findings set out here.

Details of series [1]: species or system mice. Conditions: mouse, in vivo. The method, then:
CDDP was tested at a dose of 3 mg/kg/day given every other day from day 4×6 administrations, which converts to approximately 6 mg/m^2 per administration. This is a substantially lower dose than that typically given to human patients (20-40 mg/m^2 for most tumors although doses as high as 200 mg/m^2 have been reported in neuroblastomas; the dose depends on the regimen used) since dose limiting toxicity (as exemplified by weight loss) occurs in mice at doses greater than 6 mg/m^2.

The subject of another series is U87 tumors. In words: U87 glioblastoma orthotopic model. In kind it is in vivo, mice. Conditions: tumor sections, mouse-CD31 immunostaining. The method, then: U87 cells were inoculated into the ventricles of nude mice and treatment was initiated 72 hrs after inoculation. Tumor volume was determined using caliper measurements after euthanasia and necropsy.
A: Control; B: Å6 only; C: CDDP only; D: Å6+CDDP.
U87 tumors were surgically inoculated into the cerebral ventricles of mice. The animals were allowed to recover for 72 hours at which time treatment with Å6 (75 mg/kg/day IP bid), CDDP (3 mg/kg/day given every other day from day 4×6 administrations), or a combination of Å6+CDDP was initiated,
Animals were treated for 21 days at which time they were euthanized and their brains evaluated for the presence of tumor. Transverse sections were stained with hematoxylin and eosin (H&E).
Tumor sections were also evaluated for microvessel density using antibodies specific for mouse-CD31 in immunostaining. Very few CD31^+ foci were evident in animals treated with the combination of Å6+CDDP.
Tumors were established as in the previous section, and the same therapeutic regimens were employed. Treatment was discontinued at day 21, and survival was measured. Control animals appeared moribund around day 25 and all of the animals in this group were dead by day 30.

`[NH2][Pt]([NH2])([Cl])[Cl]` [CDDP, cisplatin, reference compound]: the “dose at which dose limiting toxicity (weight loss) occurs” value in series [1] is reported as “greater than 6 mg/m^2”. In addition, the “microvessel density (CD31+ foci), angiogenesis” value in the series on U87 tumors is listed as “inhibited angiogenesis to some extent”.
